This is an account of results in US9586985B2, “Organic compounds as proantigens for natural killer T cells” (Callaghan Innovation Research Limited, priority 2012, dated 2017).

Series [1] deals with B16.OVA melanoma cells. The series is described as follows: Anti-tumour activity against subcutaneous B16.OVA tumours, given with OVA protein. In kind it is in vivo, C57BL/6 mice. Particulars: i.v. with 200 μg OVA protein seven days after tumour challenge. The protocol:
Progression of subcutaneous B16.OVA tumours is monitored in animals that are treated seven days after tumour challenge with intravenous OVA protein together with the indicated compounds, or treated with PBS. The mean tumour sizes per group (n=5)±SEM are shown.
Progression of subcutaneous B16.OVA tumours is monitored in animals that are treated seven days after tumour challenge with intravenous OVA protein together with the indicated compounds, or treated with PBS. The mean tumour sizes per group (n=5)±SEM are shown. […] (Compound CN158A=CN158 in water.)
Groups of C57BL/6 mice (n=5) receive a subcutaneous injection into the flank of 1×10^5 B16.OVA melanoma cells, which express a cDNA encoding the chicken ovalbumin (OVA) sequence. The different groups are treated 7 days later, when tumours are fully engrafted, by intravenous injection of one of the following; 200 μg OVA protein together with 200 ng α-GalCer, 200 μg OVA protein together with 200 ng of a compound of the invention, or PBS. Mice are monitored for tumour growth every 3-4 days, and tumour size for each group is calculated as the mean of the products of bisecting diameters (±SEM). Measurements are terminated for each group when the first animal develops a tumour exceeding 200 mm^2.

Series [2] concerns cytokines IL-12p70, IL-4 and IFN-g. The series is described as follows: Cytokine release into serum after injection (cytokine bead array). In kind it is in vivo, C57BL/6 mice. The protocol:
Groups of C57BL/6 mice (n=3 per group) are injected intravenously with 200 ng of the indicated compounds, and then the serum is collected at the indicated times for analysis of cytokine levels by cytokine bead array technology.
Groups of C57BL/6 mice (n=3 per group) are injected intravenously with 200 ng of α-GalCer or an equivalent molar amount of the indicated compounds, and then the serum is collected at the indicated times for analysis of cytokine levels by cytokine bead array technology. (Compound CN158A1b=CN158 formulated in accordance with Example 15; Compound CN158A=CN158 in water.)
Blood is collected from the lateral tail vein at different time intervals after glycolipid administration. Serum is collected after blood has clotted, and levels of cytokines IL-12p70, IL-4 and IFN-g are assessed by cytokine bead array technology (Bioplex, Biorad), according to the manufacturer's instructions.

The subject of series [3] is human NKT cells. The series is described as follows: Proliferation of human NKT cells in PBMC culture. In kind it is cell-based. Particulars: 7 days culture with IL-2, one donor, FIG. 6. The protocol:
PBMC from one donor are cultured for 7 days with different doses of the indicated compounds in the presence of IL-2, and then the percentages of NKT cells in the final cultures determined by flow cytometry with fluorescent α-GalCer-loaded CD1d tetramers and anti-CD3. Data are expressed as percentage of NKT cells (α-GalCer/CD1d tetramer and anti-CD3-binding cells) of total T cells (all anti-CD3-binding cells).
Peripheral blood is drawn into heparinized tubes, diluted 1:1 in PBS, and layered over a sodium diatrizoate and polysaccharide solution (Lymphoprep; Axis-Shield, Oslo, Norway) before centrifugation at 800×g for 25 minutes at room temperature to collect the peripheral blood mononuclear cell (PBMC) fraction, which contains NKT cells. To assess proliferation of NKT cells, PBMC (2×10^5 per well) are cultured at 37° C. in Iscove's Modified Dulbecco's Medium with 5% human AB serum and the indicated concentrations of α-GalCer, or the compounds of the invention, with recombinant human IL-2 50 U/mL (Chiron Corporation, Emeryville, Calif.) added after 24 hours. After 7 days of culture, the cells are analysed by flow cytometry, using fluorescent soluble CD1d tetramers that have been loaded with α-GalCer to identify the NKT cells. […]

Series [4] can be described thus: HPLC-ESI-MSMS quantification of α-GalCer in test samples. The class given is physicochemical. The note with it: freshly reconstituted formulated sample; estimated maximum level. The protocol:
Quantification of the amount of α-GalCer in various test samples of compounds of the invention is made by HPLC-ESI-MSMS analysis using a Waters 2795 HPLC and a Waters Q-TOF Premier™ Tandem Mass Spectrometer. The chromatography used a Phenomenex Kinetex C18 […] 3.0×50 mm column eluting with isocratic methanol containing 10 mM ammonium formate+0.5% formic acid at a flow rate of 0.2 mL/min. α-GalCer is monitored by selective reactant monitoring of 858.7 to 696.7 Da. The estimate of amount of α-GalCer is made by comparison of ion count integrals to a standard curve run on the same day or by comparison to test samples spiked with a known amount of α-GalCer.
The level of α-GalCer is determined on freshly reconstituted formulated samples unless otherwise stated. The estimated maximum level of α-GalCer for key compounds is given below.

As for `CCCCCCCCCCCCCCCCCCCCCCCCCC(=O)O[C@H](CCCCCCCCCCCCCC)[C@@H](O)[C@H](CO[C@H]1O[C@H](CO)[C@H](O)[C@H](O)[C@H]1O)NC(=O)OCOC(=O)C(C)(C)C` [CN145, (2S,3S,4R)-1-O-α-D-Galactopyranosyl-4-O-hexacosanoyl-2-(pivaloyloxymethoxycarbonylamino) octadecane-1,3,4-triol], the “anti-tumour activity: growth of established B16.OVA tumours” value in series [1] is on record as “equally beneficial in promoting immune responses that suppress growth of established tumours”. For the same compound, the “cytokine profile in vivo compared to α-GalCer” value in series [2] (200 ng i.v. or molar equivalent, FIGS. 3 and 8) is on record as “different cytokine profiles”. In series [2] (200 ng i.v., FIG. 3), the “course of IL-12p70 level in serum” value is “still increasing through 6 to 12 h” and the “ratio of IFN-γ to IL-4 in serum compared to α-GalCer” value is “higher ratio of IFN-γ to IL-4 than that of α-GalCer”. Besides, in series [2] (200 ng α-GalCer or equivalent i.v., FIGS. 3 and 8), the “overall levels of systemic cytokine production” value is listed as “not as potent as α-GalCer in terms of overall levels of cytokine production”. Further, in series [3], the “expansion of human NKT cells from PBMC” value is listed as “able to induce the expansion of human NKT cells”. Moreover, in series [4], the “Max α-GalCer (ppm)” value is given as 40 ppm and the “Max α-GalCer/injection” value is recorded as 0.008 ng.
